Measurements: the NIST ThermoML archive (doi:10.1021/je050092d)

Assay: molar heat capacity at constant pressure
Details: 101.33 kPa, Vacuum adiabatic calorimetry

CCCCCCCCCCCCCCCCCC(=O)OCC(COC(=O)CCCCCCCCCCCCCCCCC)OC(=O)CCCCCCCCCCCCCCCCC [glycerol trioctadecanoate]
Details | molar heat capacity at constant pressure [J/K/mol]
9.6 K, Crystal | 10.7
9.65 K, Crystal | 8.023
9.71 K, Crystal | 12.48
10.85 K, Crystal | 22.29
11.58 K, Crystal | 22.29
12.51 K, Crystal | 26.74
13.59 K, Crystal | 30.31
13.96 K, Crystal | 32.98
15.41 K, Crystal | 39.23
15.56 K, Crystal | 43.68
17.3 K, Crystal | 62.4
17.41 K, Crystal | 50.81
19.33 K, Crystal | 69.54
19.45 K, Crystal | 65.97
21.54 K, Crystal | 79.34
21.58 K, Crystal | 82.02
23.71 K, Crystal | 98.06
23.86 K, Crystal | 100.74
25.95 K, Crystal | 115
26.19 K, Crystal | 116.78
28.25 K, Crystal | 135.5
28.56 K, Crystal | 137.29
30.62 K, Crystal | 156.9
30.93 K, Crystal | 149.77
30.99 K, Crystal | 158.68
33.29 K, Crystal | 184.54
35.42 K, Crystal | 205.04
37.51 K, Crystal | 215.74
39.73 K, Crystal | 224.65
41.97 K, Crystal | 239.81
44.25 K, Crystal | 262.99
46.55 K, Crystal | 273.68
48.96 K, Crystal | 294.19
51.41 K, Crystal | 312.02
53.88 K, Crystal | 332.52
56.39 K, Crystal | 354.81
58.93 K, Crystal | 372.64
61.51 K, Crystal | 394.03
64.13 K, Crystal | 415.43
66.78 K, Crystal | 434.15
69.45 K, Crystal | 451.98
72.14 K, Crystal | 468.03
74.85 K, Crystal | 484.07
77.59 K, Crystal | 501.01
80.34 K, Crystal | 514.38
83.1 K, Crystal | 530.43
85.71 K, Crystal | 540.24
85.88 K, Crystal | 545.59
88.61 K, Crystal | 554.5
88.67 K, Crystal | 558.07
91.44 K, Crystal | 566.09
91.47 K, Crystal | 572.33
94.27 K, Crystal | 578.57
97.11 K, Crystal | 585.7
99.95 K, Crystal | 597.29
102.8 K, Crystal | 610.66
105.65 K, Crystal | 612.45
108.5 K, Crystal | 616.01
111.36 K, Crystal | 627.6
114.22 K, Crystal | 640.08
117.09 K, Crystal | 651.67
119.95 K, Crystal | 661.48
122.82 K, Crystal | 671.28
125.7 K, Crystal | 680.2
128.58 K, Crystal | 690.9
131.46 K, Crystal | 729.23
134.35 K, Crystal | 729.23
137.23 K, Crystal | 716.75
140.13 K, Crystal | 728.34
143.02 K, Crystal | 739.93
145.92 K, Crystal | 759.54
148.83 K, Crystal | 769.35
151.73 K, Crystal | 778.26
154.64 K, Crystal | 790.74
157.55 K, Crystal | 793.42
160.46 K, Crystal | 818.38
163.37 K, Crystal | 826.4
166.29 K, Crystal | 837.99
169.2 K, Crystal | 848.69
172.12 K, Crystal | 856.71
175.04 K, Crystal | 870.08
177.95 K, Crystal | 878.11
178.91 K, Metastable crystal | 900.39
180.87 K, Crystal | 890.59
181.6 K, Metastable crystal | 918.22
183.79 K, Crystal | 901.29
184.26 K, Metastable crystal | 942.29
186.7 K, Crystal | 921.79
186.88 K, Metastable crystal | 974.39
189.48 K, Metastable crystal | 985.98
189.62 K, Crystal | 938.73
192.06 K, Metastable crystal | 995.78
192.54 K, Crystal | 957.45
194.63 K, Metastable crystal | 998.46
195.45 K, Crystal | 972.6
197.18 K, Metastable crystal | 1005.6
198.37 K, Crystal | 976.17
199.71 K, Metastable crystal | 1029.7
201.29 K, Crystal | 997.57
202.23 K, Metastable crystal | 1053.7
204.21 K, Crystal | 1008.3
204.74 K, Metastable crystal | 1074.2
207.13 K, Crystal | 1014.5
207.23 K, Metastable crystal | 1089.4
209.71 K, Metastable crystal | 1083.1
210.05 K, Crystal | 1023.4
212.17 K, Metastable crystal | 1091.2
212.96 K, Crystal | 1029.7
214.62 K, Metastable crystal | 1110.8
215.88 K, Crystal | 1037.7
217.06 K, Metastable crystal | 1127.7
218.8 K, Crystal | 1044.8
219.48 K, Metastable crystal | 1147.3
221.72 K, Crystal | 1048.4
221.9 K, Metastable crystal | 1157.1
224.3 K, Metastable crystal | 1170.5
224.64 K, Crystal | 1057.3
226.69 K, Metastable crystal | 1185.7
227.55 K, Crystal | 1067.1
229.06 K, Metastable crystal | 1200.8
230.47 K, Crystal | 1080.5
231.43 K, Metastable crystal | 1217.8
233.39 K, Crystal | 1094.7
233.79 K, Metastable crystal | 1238.3
236.13 K, Metastable crystal | 1256.1
236.3 K, Crystal | 1107.2
238.46 K, Metastable crystal | 1271.3
239.22 K, Crystal | 1121.5
240.79 K, Metastable crystal | 1288.2
242.14 K, Crystal | 1134
243.1 K, Metastable crystal | 1307.8
245.06 K, Crystal | 1149.1
245.41 K, Metastable crystal | 1327.4
247.71 K, Metastable crystal | 1339.9
247.98 K, Crystal | 1165.2
250 K, Metastable crystal | 1358.6
250.9 K, Crystal | 1177.6
252.28 K, Metastable crystal | 1376.4
253.82 K, Crystal | 1192.8
254.56 K, Metastable crystal | 1397.8
256.74 K, Crystal | 1208
256.83 K, Metastable crystal | 1413
259.09 K, Metastable crystal | 1426.4
259.67 K, Crystal | 1222.2
261.34 K, Metastable crystal | 1444.2
262.6 K, Crystal | 1238.3
263.59 K, Metastable crystal | 1461.1
265.53 K, Crystal | 1254.3
265.83 K, Metastable crystal | 1479
268.07 K, Metastable crystal | 1495
268.46 K, Crystal | 1271.3
270.3 K, Metastable crystal | 1515.5
271.39 K, Crystal | 1285.5
272.53 K, Metastable crystal | 1532.5
274.33 K, Crystal | 1301.6
274.75 K, Metastable crystal | 1553
276.96 K, Metastable crystal | 1577.9
277.27 K, Crystal | 1327.4
279.18 K, Metastable crystal | 1590.4
280.21 K, Crystal | 1339
281.39 K, Metastable crystal | 1610
283.16 K, Crystal | 1355
283.59 K, Metastable crystal | 1629.6
285.8 K, Metastable crystal | 1647.5
286.11 K, Crystal | 1371.1
288 K, Metastable crystal | 1670.6
289.07 K, Crystal | 1387.1
290.2 K, Metastable crystal | 1689.4
292.03 K, Crystal | 1412.1
292.39 K, Metastable crystal | 1716.1
294.59 K, Metastable crystal | 1733
294.99 K, Crystal | 1428.2
296.78 K, Metastable crystal | 1763.3
297.32 K, Crystal | 1434.4
297.96 K, Crystal | 1448.7
298.4 K, Crystal | 1436.2
298.97 K, Metastable crystal | 1787.4
299.84 K, Crystal | 1454.9
300.94 K, Crystal | 1466.5
301.16 K, Metastable crystal | 1815.9
301.82 K, Crystal | 1473.6
303.79 K, Crystal | 1492.3
304.05 K, Crystal | 1488.8
305.75 K, Crystal | 1508.4
306.72 K, Crystal | 1514.6
307.7 K, Crystal | 1523.5
308.94 K, Crystal | 1529.8
309.65 K, Crystal | 1536
311.17 K, Crystal | 1544
311.6 K, Crystal | 1552.1
313.39 K, Crystal | 1561
313.55 K, Crystal | 1569.9
315.49 K, Crystal | 1579.7
315.61 K, Crystal | 1576.1
317.43 K, Crystal | 1598.4
317.83 K, Crystal | 1598.4
319.37 K, Crystal | 1627.8
320.05 K, Crystal | 1624.3
321.32 K, Crystal | 1642.1
322.28 K, Crystal | 1645.7
323.27 K, Crystal | 1659.9
324.5 K, Crystal | 1666.2
325.23 K, Crystal | 1682.2
326.72 K, Crystal | 1692.9
327.2 K, Crystal | 1700.1
328.95 K, Crystal | 1713.4
329.17 K, Crystal | 1721.4
351.37 K, Liquid | 1971.1
353.63 K, Liquid | 1975.5
355.89 K, Liquid | 1981.8
358.16 K, Liquid | 1986.2
360.45 K, Liquid | 1992.5
362.74 K, Liquid | 1997.8
365.05 K, Liquid | 2004.9
367.37 K, Liquid | 2007.6
369.71 K, Liquid | 2015.6
